Laboratory results as given in US10155757B2, “Crystalline form of a JAK3 kinase inhibitor” (VECTURA LIMITED, priority 2015, dated 2018).

Experiment: Aerodynamic particle size distribution (APSD) by Next Generation Impactor (NGI), fine particle mass and its stability
Assay type: physicochemical
Conditions: 1000 μg dose load in 20 mg formulation, NGI 60 Lmin^−1, F1 device
Method: The aerodynamic particle size distribution (APSD) of the formulations was evaluated with the Next Generation Impactor (NGI) tested at a flow rate of 80 Lmin^−1 in the GyroHaler® device (Compound 1—Gentisic Acid) and 60 Lmin^−1 in the F1 device (Compound 1, Compound 1—Maleic Acid and Compound 1—Adipic Acid). One dose was collected for each NGI measurement. Compound 1 deposition on the NGI components was measured by a gradient high performance liquid Chromatography (HPLC) method with UV detection.
The co-crystals with adipic acid and maleic acid were tested in a Vectura unit dose device as disclosed in WO2010/086285, and the gentisic acid co-crystal was tested in a GyroHaler® device.

- Fine particle Mass (μg < 5 μm) (T = 0 w): 418.2 µg
- Fine particle Mass (μg < 5 μm) (T = 4 w): 450.7 µg
- Fine particle Mass (μg < 5 μm) (T = 12 w): 415.3 µg
SMILES: Cn1c(=O)n([C@H]2CCCN(C(=O)CC#N)C2)c2nc(-c3cnn4ccccc34)ccc21 [Compound 1, (S)-3-(3-(1-methyl-2-oxo-5-(pyrazolo[1,5-a]pyridine-3-yl)-1H-imidazo[4,5-b]pyridine-3(2H)-yl)piperidin-1-yl)-3-oxopropanenitrile]
